For this assay, the target named is Dihydroorotate dehydrogenase (quinone), mitochondrial (Homo sapiens, UniProt Q02127). Nature of the assay: Method for Testing Activities of Compounds at Enzyme Level: Principles of activity test at enzyme level: firstly, dihydroorotate (DHO) is oxidatively dehydrogenated by DHODH to form orotic acid (Orotate, OA), accompanied by reduction of Flavin mononucleotide (FMN) into reduced flavin mononucleotide (FMNH2) by accepting 2H+ and 2e−, then coenzyme Q (CoQ) as hydrogen acceptor accepting electron and proton from FMNH2 is reduced into reduced coenzyme Q (CoQH2), reduced coenzyme Q transfers electrons to a chromogenic substrate, […] (DCIP), and finally DCIP was reduced. […] The degree to which the substrate DHO is oxidized can be judged based on the degree of decrease in absorbance. The degree of oxidation of the substrate DHO per unit time is the initial rate of the enzymatic reaction. […] Substrate DHO was added to start the reaction with a DHO final concentration of 500 μM. The absorbance was read at 600 nm using a BioTek microplate reader and read every 30 s for 6 min. […] For calculating IC50 of a compound, Origin 8.0 was used to test the inhibition rate at least 8 concentrations. The format is single protein.
Dihydroorotate dehydrogenase (quinone), mitochondrial, sequence (Q02127 whole entry): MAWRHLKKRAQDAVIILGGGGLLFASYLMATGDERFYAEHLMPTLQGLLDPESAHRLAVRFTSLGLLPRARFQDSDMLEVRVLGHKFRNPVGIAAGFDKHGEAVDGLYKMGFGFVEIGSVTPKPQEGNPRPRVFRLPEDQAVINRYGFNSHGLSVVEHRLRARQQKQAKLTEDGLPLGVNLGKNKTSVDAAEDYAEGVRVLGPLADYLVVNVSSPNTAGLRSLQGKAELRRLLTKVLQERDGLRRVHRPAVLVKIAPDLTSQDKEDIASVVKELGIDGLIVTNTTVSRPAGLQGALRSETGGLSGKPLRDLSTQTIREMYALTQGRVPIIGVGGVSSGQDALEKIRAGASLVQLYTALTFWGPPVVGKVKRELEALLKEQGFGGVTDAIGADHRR
On to `CN(/N=C/c1ccccc1C(=O)OCCc1ccccc1)c1nc(-c2ccccc2Cl)cs1`, for which the IC50 – broadly, the concentration at which inhibition is half-maximal – was > 50 µM.

As to `O=C(OCCc1ccccc1)c1ccccc1/C=N/Nc1nc(-c2ccccc2Cl)cs1`, the IC50 is > 50 µM.

For `Cc1sc(N(C)/N=C/c2ccccc2C(=O)O)nc1-c1ccccc1Cl`, the IC50 is 0.0355 µM.
